This note sets out measurements from ChEMBL document CHEMBL1146464, “Two new analogues of the cytotoxic substance BE-52211 from Streptomyces sp” (2004).

This assay in a line: Inhibition of first mitotic cell division in Asterina pectinifera fertilized eggs assessed as minimum effective concentration. It is filed as functional. The settings on record: Patiria pectinifera, Egg; read-out: MEC.

For the compound `C=CCc1cc(C)ccc1/C(C)=C\C(C)=C\CCC[C@H](O)CNC(C)=O`, the minimal effective concentration is 2.5 µg/mL. With `C/C=C\c1cc(C)ccc1/C(C)=C\C(C)=C\CCC[C@H](O)CNC(C)=O` the figure was 2.5 µg/mL.
